US20210121542A1, “COMPOSITION FOR […] OF PROTEIN TH[…] ORAL, SUBLINGUAL AND BUCCAL ROUTE” (Prime Bio, Inc., priority 2019, published 2021)

Test system: trypsin
Format: in vitro ADME

## bovine serum albumin [BSA]
  % Relative Protection (compared with BSA + Trypsin): 0%
